In patent US5461057A, “Hydro-ethano-indeno-pyridines” (priority 1994, dated 1995):
Read-outs that look alike come from different tables or passages of the source.

Key:
[1] = Calcein cytotoxicity assay; format: cell-based; conditions: human, lox melanoma cells, calcein AM assay; for CC50 at 2 h: read-out: 2 Hr Tox LD50
[2] = system: LOX human melanoma cell adhesion to human fibronectin; experiment: LOX melanoma cell adhesion to fibronectin; format: cell-based; conditions: for IC50 / inhibition at 10 µM / inhibition at 50 µM: Homo sapiens, LOX; for IC50: read-out: LOX FN IC50; for inhibition at 10 µM: read-out: % Inhibition at 10 μM; for inhibition at 50 µM: read-out: % Inhibition at 50 μM
In short: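 Compound added to fibronectin-coated (140 ng/well), BSA-blocked wells before LOX cells (1×10^5/well, detached with urea/EDTA). Cells adhered 1 h at 37 °C, then washed. Adherent cells quantified by calcein AM fluorescence (485/530 nm); IC50 for adhesion inhibition.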

[3] = system: LOX human melanoma cell adhesion to polylysine; experiment: LOX melanoma cell adhesion to polylysine; format: cell-based; conditions: read-out: Poly Lys IC50
[4] = system: histamine-induced dyspnea; experiment: Bronchodilator (in vivo) Guinea Pig Dyspnea; conditions: oral, one hour before histamine challenge
In short: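 Fasted, unanesthetized guinea pigs (250-350 g) received the test drug orally one hour before exposure to an aerosolized 0.1% histamine solution. Onset of dyspnea was recorded, and data were expressed as number tested over number survived.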

[5] = target: ELAM-1 (Homo sapiens, UniProt P16581); experiment: cell-based
Procedure: Cell adhesion to ELAM-1 was measured essentially as described previously (Pal et al., J. Biomed. Res. 2: 53, 1992). Undifferentiated HL-60 leukemia cells were prelabelled for 30 minutes with 1 μM calcein AM in DPBS without calcium or magnesium, and the cells were washed twice with the same medium before addition to 96-well plates containing monolayers of mouse L cells (5×10^4 cells/well) transfected with cDNA for the adhesion molecule ELAM-1. Adhesion was allowed to proceed for 30 minutes at room temperature before washing and quantitation of the remaining fluorescent HL-60 cells as described above.
ELAM-1 (E-selectin) is a member of the selectin class of adhesion molecules.

[6] = system: metrazole; experiment: Anti-metrazole test in mice; format: in vivo, mouse; conditions: for ED50: Mus musculus, read-out: MTZ ED50
Procedure: The anti-metrazole test in mice was carried out as described in Everett et al, J. Pharmacol. Exp. Therap. 81:402-407 (1944); which is hereby incorporated by reference.
The results for this test are given below as ED50's in the units of mg/kg.

[7] = system: pulmonary resistance; experiment: Pulmonary Resistance in the Anesthetized Rat; format: in vivo; conditions: 0.5 mpk, i.v., mean of 5 animals, % decrease in pre-drug baseline resistance
Procedure: Rats (400-500 g) anesthetized with dialurethane were surgically prepared with tracheal and esophageal catheters. These catheters were connected to pressure transducers for recording of air flow, tracheal and esophageal pressures. These pressures formed the basis for measurement of pulmonary resistance. Inhibition of pulmonary resistance is a reflection of bronchodilation.
All compounds were tested i. v. in 5 separate animals. All data are expressed in % decrease in the pre-drug baseline resistance and each number given is the mean of the 5 animals tested.
The model is sensitive to bronchodilator activity.
Further information relating this test can be obtained from the following publications which are hereby incorporated by reference: Comroe et al, J. Appl. Physio. 4:439-44 (1959); Dungan et al J. Pharmacol. Exp. Therap. 164:290-301(1968); and Mead, J. et al. J. Appl. Physio. 5:779-796 (1953).

[8] = system: discrete trial avoidance behavior; experiment: Conditioned avoidance suppression in rats; format: in vivo, rat; conditions: for minimal effective dose: Rattus norvegicus, read-out: CAR minimum effective dose (MED)
Excerpt: See Ann. N.Y. Acad. Sci. 66,740 (1957) which is hereby incorporated by reference. The procedure for carrying out this test is set forth in Int. J. Neuro-pharmacal., 5, 405-411 (1966) which is hereby incorporated by reference and in PCT/US91/06705, filed 20 Sep. 1991, which is mentioned above.
The results for this test are given below as minimum effecive doses (MED)in the units of mg/kg.
As used herein, CAR refers to the conditioned avoidance suppression test in rats;

[9] = system: acetic acid-induced writhing; experiment: Acetic Acid Writhing Test in Mice; format: in vivo, mouse; conditions: for ED50: Mus musculus, po, read-out: WRITH ED50
Excerpt: The blockade of writhing induced by the intraperitoneal injection of acetic acid is an established experimental animal model for the screening of antinociceptive drugs (drugs which prevent the appreciation or transmission of pain sensations).
The procedure for the Acetic Acid Writhing Test in Mice is set forth in Hendershot et al, J. Pharmacol. Exp. Therap. 125:237, (1959); Koster et al., Fed. Proc. 18:412, (1959); and international application PCT/US91/06705, filed 20 Sep. 1991, which are hereby incorporated by reference.
The results for this test are given below in the units of mg/kg which is also abbreviated in this specification as mpk. The results for this test are given as effective doses (ED50 's).

[10] = system: muricidal (mouse-killing) behavior; experiment: Effects on muricidal behavior in rats; format: in vivo, rat; conditions: for ED50: Rattus norvegicus, read-out: MUR ED50
Excerpt: Blockade of muricidal (mouse-killing) behavior in rats is used as a measure of evaluating the anti-depressant activity of drugs, and the procedure for carrying out this test is set forth in Int. J. Neuro-pharmacal., 5, 405-411 (1966) are hereby incorporated by reference, and in PCT/US91/06705, filed 20 Sep. 1991, which is mentioned above.
(§1) The results for this test are given below as ED50 's in the units of mg/kg.
MUR refers to the test on the effects on muricidal behavior in rats;

[11] = system: TBZ-induced ptosis; experiment: Effects on tetrabenazine (TBZ)-induced ptosis in mice; format: in vivo, mouse; conditions: for TBZ ED50: p.o.
Excerpt: Clinically active antidepressant drugs are known to block TBZ-induced ptosis in mice (See Psychosomatic Medicine, Nodine and Moyer, Eds. Lea and Febiger, Philadelphia, 1962, pp 683-90, which is hereby incorporated by reference). Activity in this test is used to predict anti-depressant activity in man.
The procedure for the TBZ-Induced Ptosis Test in Mice is set forth in Psychosomatic Medicine, Nodine and Moyer, Eds. Lea and Febiger, which is hereby incorporated by reference and in PCT/US91/06705, filed 20 Sep. 1991, which is mentioned above.
as §1
TBZ refers to the test of effects on tetrabenazine induced ptosis in mice, p.o.;

Chain of ELAM-1 (P16581 22-610): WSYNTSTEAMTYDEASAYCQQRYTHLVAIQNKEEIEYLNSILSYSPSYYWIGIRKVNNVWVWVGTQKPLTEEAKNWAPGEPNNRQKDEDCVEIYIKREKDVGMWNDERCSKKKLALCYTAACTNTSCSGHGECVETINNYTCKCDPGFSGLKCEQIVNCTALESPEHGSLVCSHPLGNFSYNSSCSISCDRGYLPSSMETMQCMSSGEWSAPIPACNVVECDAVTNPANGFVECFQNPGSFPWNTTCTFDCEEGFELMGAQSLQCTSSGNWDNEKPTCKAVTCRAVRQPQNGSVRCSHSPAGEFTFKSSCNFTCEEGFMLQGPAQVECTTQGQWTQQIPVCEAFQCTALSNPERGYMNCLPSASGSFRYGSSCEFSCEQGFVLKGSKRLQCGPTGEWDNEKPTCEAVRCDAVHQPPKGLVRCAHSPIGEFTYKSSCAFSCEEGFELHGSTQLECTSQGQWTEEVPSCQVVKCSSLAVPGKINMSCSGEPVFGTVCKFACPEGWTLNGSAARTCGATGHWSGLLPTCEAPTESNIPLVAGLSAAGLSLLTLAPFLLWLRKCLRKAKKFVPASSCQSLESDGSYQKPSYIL

## CN1C2CCC1C1C(=C(c3ccc(Cl)cc3)c3cc(F)ccc31)C2 (stereo not shown) [Compound A]
[1]
  CC50 at 2 h: 17.4 µM
[1]; 6 hours, read-out: 6 Hr Tox LD50
  CC50 at 6 h: 5.9 µM
[2]; 1 h
  IC50: 4.8 µM
[2]
  inhibition at 10 µM: 81.1%
  inhibition at 50 µM: 101%
[3]
  IC50: 11.8 µM
[4]; 100 mg/kg
  DYSP survivors: 2/3
[5]
  IC50: 21.8 µM

## CN1C2CCC1C1C(=C(c3ccccc3)c3ccccc31)C2 (stereo not shown) [T]
[6]
  ED50: > 30 mg/kg
[7]
  Pulmonary Resistance in Rats, % Inhibition: 46%
[1]
  CC50 at 2 h: 135 µM
[2]; 10 μM
  % Inhibition at 10 μM: 2.2%
[2]; 50 μM
  % Inhibition at 50 μM: 89.3%
[2]; Table 4, 1 hour adhesion
  IC50: 19.5 µM
[3]
  IC50: 115 µM
[4]; 50 mg/kg
  DYSP survivors: 0/3
[4]; 100 mg/kg
  DYSP survivors: 2/3
[8]
  minimal effective dose: > 25 mg/kg
[9]
  ED50: 17.3 mg/kg
[10]
  ED50: > 10 mg/kg
[11]
  TBZ ED50: 5.7 mg/kg

## COc1ccc(C2(O)c3ccccc3C3C4CCC(CC32)N4C)cc1 (stereo not shown) [PP]
[6]
  ED50: > 30 mg/kg
[7]; Rattus norvegicus, iv, read-out: Pulmonary Resistance in Rats, % Inhibition
  inhibition in vivo at 0.5 mg/kg: 62%
[2]; 10 μM
  inhibition at 10 µM: 4.9%
[2]; 50 μM
  inhibition at 50 µM: 21.9%
[4]; Cavia porcellus, 1 h, 50 mg/kg, read-out: DYSP survivors (converted)
  responders at 50 mg/kg: 0%
[8]
  minimal effective dose: > 25 mg/kg
[9]
  ED50: > 30 mg/kg
[10]
  ED50: > 10 mg/kg
[11]; Mus musculus, po
  ED50: > 30 mg/kg

## CN1C2CCC1C1C(=C(c3ccccc3)c3ccccc31)C2 (stereo not shown) [U]
[6]
  MTZ ED50: > 30 mg/kg
[2]; 10 μM
  % Inhibition at 10 μM: -18.7%
[2]; 50 μM
  % Inhibition at 50 μM: 21.0%
[8]
  CAR minimum effective dose (MED): > 25 mg/kg
[9]; p.o.
  WRITH ED50: > 30 mg/kg
[10]
  MUR ED50: 14.1 mg/kg
[11]
  TBZ ED50: 1.3 mg/kg
